From patent US10280156B2, “Heteroaromatic chalcone derivatives and their medical use” (Medizinische Universität Wien, priority 2014, dated 2019)

Experiments:
M2-10B4 = test: Viability test on mouse fibroblast cell line M2-10B4, 48 h; assay type: cell-based; settings: 48 h incubation, mouse fibroblast cell line
Description: (§1) All experiments with hematological cell lines were done using phenol red-free RPMI 1640+L-glutamine (PAA Laboratories) supplemented with 1% PenStrep and 10% FBS gold, except experiments with OCI-Ly7 which were carried out in Gibco IMEM+GlutaMAX and 25 mM HEPES containing 20% FBS gold and 1% PenStrep. Cells were incubated in triplicates with increasing concentrations of the compounds for 48 h, changes in viability were determined using the cell proliferation and cytotoxicity assays EZ4U (Biomedica Group, Austria) and CellTiter-Blue Cell Viability Assay (Promega, Madison, Wis., USA) following instructions of the manufacturers. IC50 values were calculated from two independent experiments using GraphPad Prism 5 software.
Structurally seen, the small molecule compound 1 represents a typical chalcone scaffold. It is characterized by an ortho-ethoxy-substituted phenyl part as ring A and a 2-naphthyl moiety symbolizing ring B. The focus of the present study was to guide the systematic identification of a growth inhibitor with specificity to neoplastic cells, as cytotoxicity towards healthy cells is mostly associated with adverse effects, which can be related to morbidity and mortality of the patient (Milligan D W et al. Brit J Haematol 2006, 135, 450-474). To discriminate in vitro between structural elements necessary for potent cytotoxicity towards tumor cells which, at the same time, clearly show less activity on normal cells, the compounds were additionally tested on the murine bone marrow fibroblast cell line M2-10B4. This cell line is regularly used as feeder layer when cultured with patient cells providing additional support and survival signals in particular in drug screens (Kurtova A V et al. Blood 2009, 114, 4441-4450).
(§2) Initially, compounds were biologically tested in six concentration steps (0.1 μM; 1 μM; 5 μM; 10 μM; 50 μM; and 100 μM) using the CellTiter-Blue Cell Viability Assay (Promega, Madison, Wis., USA) and an incubation time of 48 hours. […] IC50 values were calculated from at least two independent experiments with 3 replicates each. In order to evaluate the biologic activity of the new compounds, cytotoxicity was compared to that of fludarabine, an already approved drug for the treatment of various B-cell malignancies. […] Differences in IC50 values for the different cell types can be explained by the biological and genetic particularities of each subtype of B-cell Non-Hodgkin lymphoma (Stacchini A et al. Leukemia Res 1999, 23, 127-136; Sambade C et al. Int J Cancer 2006, 118, 555-563; Chang H et al. Leukemia lymphoma 1995, 19, 165-171; Tweeddale M E et al. Blood 1987, 69, 1307-1314; Tweeddale M et al. Blood 1989, 74, 572-578).

OCI-Ly7 = test: Viability test on OCI-Ly7 cells, 48 h; assay type: cell-based, human; settings: Homo sapiens, OCI-Ly7, 48 h, 48 h incubation; nd = no significant cytotoxic activity up to 100 μM
Description: (§3) JURKAT and CCRF-CEM (T-cell acute lymphoblastic leukemia), HL60 and K562 representing acute and chronic myeloid leukemia, respectively, the chronic lymphocytic leukemia cell line MEC-1, and the diffuse large B-cell lymphoma cell line U-2940 were cultured in Gibco RPMI 1640+GlutaMAX (Life Technologies, Carlsbad, Calif., USA) supplemented with 10% fetal bovine serum gold (FBS gold; PAA Laboratories, Pasching, Austria) and 1% PenStrep (100 U/ml penicillin and 100 μg/ml streptomycin; PAA Laboratories), and maintained at 37° C. in humidified atmosphere with 5% CO2. The diffuse large B-cell lymphoma cell line OCI-LY7 was cultured in Gibco IMDM+GlutaMAX and 25 mM HEPES (Life Technologies) containing 20% FBS gold and 1% PenStrep.
as §1, §2

MEC1 = test: Viability test (CellTiter-Blue/EZ4U) on MEC1 cells, 48 h; assay type: cell-based, human; settings: Homo sapiens, MEC1, 48 h, 48 h incubation; nd = no significant cytotoxic activity up to 100 μM
Description: as §3, §1, §2

U-2940 = test: Viability test on U-2940 cells, 48 h; assay type: cell-based, human; settings: 48 h incubation, nd = no significant cytotoxic activity up to 100 μM
Description: as §3, §1, §2

Structure (SMILES) | IC50 (M2-10B4; Mus musculus, M210B4, 48 h) [µM] | IC50 (OCI-Ly7) [nM] | IC50 (MEC1) [nM] | IC50 (U-2940) [µM] | IC50 (U-2940; Homo sapiens, U-2940, 48 h) [µM] | melting point [°C] | IC50 (M2-10B4) [µM]
CCOc1ccccc1C(=O)/C=C/c1ccc2ccccc2c1 [Compound 1, 3-(2-Napthyl)-1-(2-ethoxyphenyl)-2-propen-1-one] | 7.8 | 60 | 60 | 4.43 | 2.43 | 96 to 97 | –
CC(C)Oc1ccccc1C(=O)/C=C/c1ccc2ccccc2c1 [Compound 5] | > 100 | 150 | 1170 | – | 11.1 | 82 to 85 | –
CCOc1ccccc1C(=O)/C=C/c1ccc2c(c1)OCO2 [Compound 9, 3-(1,3-Benzodioxol-5-yl)-1-(2-ethoxyphenyl)-2-propen-1-one] | > 100 | 130 | 1100 | – | 9.49 | 65 to 70 | –
CCOc1ccccc1C(=O)/C=C/c1cccc2ccccc12 [Compound 10, 1-(2-Ethoxyphenyl)-3-(1-naphthyl)-2-propen-1-one] | 14.1 | 1480 | 1900 | – | 7.37 | 109 to 110 | 17.1
CCOc1ccccc1C(=O)/C=C/c1ccc2sccc2c1 [Compound 13, 3-(5-Benzo[b]thienyl)-1-(2-ethoxyphenyl)-2-propen-1-one] | 21.1 | 340 | 340 | – | 9.05 | 104 to 106 | –
